Source: PMC10698726 (Molecular Pharmaceutics, 2023)
pIC50: −log10 of the molar value. Where two headings read alike, the source gives them in different places.

Tests used:
OCT2 = molecular target: T1, OCT2 (Homo sapiens, UniProt O15244); experiment: Inhibition of model substrate uptake in OCT2-overexpressing HEK293 cells; settings: 5 min; for (S,S)-Ethambutol inhibition [%] / N-Ethyllidocaine inhibition [%] / inhibition at 5 min, 20 μM / ASP+ inhibition [%]: OCT2, 20 μM inhibitor; for inhibition at 5 min, 20 μM: human, OCT2-overexpressing HEK293 cells
T1 sequence (O15244 1-555): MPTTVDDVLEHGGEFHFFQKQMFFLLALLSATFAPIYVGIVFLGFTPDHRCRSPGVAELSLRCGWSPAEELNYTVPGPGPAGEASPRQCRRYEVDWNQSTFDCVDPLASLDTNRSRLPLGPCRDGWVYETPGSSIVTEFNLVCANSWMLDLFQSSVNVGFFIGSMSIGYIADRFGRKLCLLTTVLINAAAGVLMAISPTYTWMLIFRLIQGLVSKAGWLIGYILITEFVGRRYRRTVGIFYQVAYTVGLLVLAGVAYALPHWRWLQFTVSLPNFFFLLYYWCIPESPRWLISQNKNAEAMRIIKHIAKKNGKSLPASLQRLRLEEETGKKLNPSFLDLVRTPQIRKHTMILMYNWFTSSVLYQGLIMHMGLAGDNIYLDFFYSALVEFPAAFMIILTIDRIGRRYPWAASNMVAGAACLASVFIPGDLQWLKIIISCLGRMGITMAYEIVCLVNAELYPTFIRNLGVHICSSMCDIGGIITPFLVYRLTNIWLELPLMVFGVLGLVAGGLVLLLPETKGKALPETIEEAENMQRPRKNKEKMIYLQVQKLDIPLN
Method: (§1) All experiments were carried out in transporter-overexpressing HEK293 cells. OCT1-, OCT2-, NET-, DAT-, and SERT-overexpressing cells as well as the empty-vector transfected control cell line were generated as described earlier,[26]−[28] whereas the OCT3-overexpressing HEK293 cells were generous gift of from Drs. Koepsell and Gorbulev (University of Würzburg, Germany). All cells were cultivated in Dulbecco’s modified Eagle’s medium (DMEM) supplemented with 10% (v/v) FCS, penicillin (100 U/mL), and streptomycin (100 μg/mL) and kept in culture for no longer than 30 passages.
(§2) As for the transport experiments, 300,000 HEK293 cells were plated in poly-D-lysine-coated 24-well plates 2 days ahead of the experiment. On every plate, two wells of empty vector (EV)-transfected cells were used as a control to account for the passive influx of the model substrate, and two wells of transporter-overexpressing cells were used to determine the noninhibited uptake of the model substrate. Cells were initially washed once with 37 °C HBSS+ and then incubated with 2 μM model substrate (0.2 μM for MPP^+ uptake by MATs) with and without 20 μM inhibitor for 5 min. For concentration-dependent inhibition experiments, the cells were incubated with increasing inhibitor concentrations. The incubation was terminated by aspiration of the buffer before cells were washed twice with ice-cold HBSS+ and lysed in 80% acetonitrile. Cell lysates were transferred into a black 96-well plate for the fluorescence measurement of ASP^+ or used for sample preparation for LC–MS/MS analysis. […] Fluorescence quantification was performed in technical duplicates.
(§3) Transporter-mediated net uptake was calculated as the difference between uptake in transporter-overexpressing cells and that in the empty-vector-transfected control. […] Vmax is the maximum transport velocity, while Km is defined as the substance concentration that is required to reach half of vmax. The ratio of vmax over Km is termed intrinsic clearance Clint. For inhibition experiments, the transport activity was calculated by using the following equation [drawing 1]
(§4) SubstrateEV refers to the passive uptake of model substrates into the control cells and substratenoninhibited is the uptake in transporter-overexpressing cells without the presence of any inhibitor. The percent inhibition values are then calculated as described in the following [drawing 2]
(§5) For concentration inhibition experiments, the transporter activity was plotted against the log10 of inhibitor concentrations, and the data were fitted by the following equation to determine IC50 values [drawing 3]
(§6) Y refers to the transporter activity, whereas Ymax is the maximum and Ymin is the minimal transporter activity. X is the log10 of inhibitor concentrations, IC50 is the half-maximal inhibitory concentration, and hill slope is the slope factor.

OCT3 = molecular target: T2, OCT3 (Homo sapiens, UniProt O75751); experiment: Inhibition of model substrate uptake in OCT3-overexpressing HEK293 cells; format: cell-based
T2 construct: expressed in transfected cells; host or cells: HEK293
T2 sequence (O75751 1-556): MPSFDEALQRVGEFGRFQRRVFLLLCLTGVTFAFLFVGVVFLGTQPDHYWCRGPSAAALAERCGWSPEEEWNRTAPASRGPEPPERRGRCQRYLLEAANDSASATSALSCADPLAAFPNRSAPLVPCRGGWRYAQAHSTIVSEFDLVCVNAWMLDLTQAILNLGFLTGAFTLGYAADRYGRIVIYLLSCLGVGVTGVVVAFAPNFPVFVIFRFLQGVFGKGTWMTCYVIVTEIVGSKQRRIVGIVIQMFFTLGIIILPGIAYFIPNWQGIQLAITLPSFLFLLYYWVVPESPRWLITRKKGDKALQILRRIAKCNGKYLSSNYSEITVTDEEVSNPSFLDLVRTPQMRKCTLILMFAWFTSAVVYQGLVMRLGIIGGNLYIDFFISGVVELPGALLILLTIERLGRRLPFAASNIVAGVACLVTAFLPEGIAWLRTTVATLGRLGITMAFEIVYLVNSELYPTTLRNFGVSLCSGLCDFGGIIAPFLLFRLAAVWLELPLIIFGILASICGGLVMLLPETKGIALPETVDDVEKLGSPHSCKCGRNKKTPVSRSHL
Method: as §1, §2, §3, §4, §5, §6

OCT1 = molecular target: T3, OCT1 (Homo sapiens, UniProt O15245); experiment: Inhibition of model substrate uptake in OCT1-overexpressing HEK293 cells; format: cell-based; parameters: expressed in transfected cells; host or cells: HEK293; settings: for inhibition at 5 min, 20 μM: OCT1-overexpressing HEK293 cells
T3 sequence (O15245 1-554): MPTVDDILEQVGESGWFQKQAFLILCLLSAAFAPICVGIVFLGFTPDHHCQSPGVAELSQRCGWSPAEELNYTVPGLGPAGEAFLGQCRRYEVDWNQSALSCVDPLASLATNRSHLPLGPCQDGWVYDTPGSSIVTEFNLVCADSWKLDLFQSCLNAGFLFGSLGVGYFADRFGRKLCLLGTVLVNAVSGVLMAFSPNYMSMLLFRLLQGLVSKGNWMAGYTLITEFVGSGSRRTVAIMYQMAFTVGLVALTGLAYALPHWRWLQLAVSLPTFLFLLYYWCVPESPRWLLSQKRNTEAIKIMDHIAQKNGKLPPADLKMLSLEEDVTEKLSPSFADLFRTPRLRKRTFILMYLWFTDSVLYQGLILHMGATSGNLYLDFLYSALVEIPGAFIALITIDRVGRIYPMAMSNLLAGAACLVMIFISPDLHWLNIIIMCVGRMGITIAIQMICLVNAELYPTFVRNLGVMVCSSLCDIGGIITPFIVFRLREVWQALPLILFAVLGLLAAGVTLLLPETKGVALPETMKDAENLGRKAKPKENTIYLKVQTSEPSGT
Method: Koepsell and Gorbulev (University of Würzburg, Germany).
Fluorescence quantification was performed in technical duplicates.

[1] = pH 7.4, probe ASP+ (2 μM), ASP+ inhibition [%], 2 μM ASP+
[2] = HEK293, 5 min, read-out: (S)-Zolmitriptan inhibition [%]
[3] = HEK293, 5 min, read-out: (S,S)-Ethambutol inhibition [%]
[4] = human, pH 7.4, probe (S,S)-ethambutol (2 μM), (S,S)-Ethambutol inhibition [%], OCT1, 20 μM inhibitor, 2 μM (S,S)-ethambutol, 5 min
[5] = human, pH 7.4, probe ASP+ (2 μM), OCT1, 20 μM inhibitor, 2 μM ASP+, 5 min, mean of three experiments, read-out: ASP+ inhibition [%]
[6] = human, pH 7.4, probe sumatriptan (2 μM), OCT1, 20 μM inhibitor, 2 μM sumatriptan, 5 min, read-out: Sumatriptan inhibition [%]
[7] = pH 7.4, probe (S,S)-ethambutol (2 μM), (S,S)-Ethambutol inhibition [%], 2 μM (S,S)-ethambutol
[8] = pH 7.4, probe N-ethyllidocaine (2 μM), N-Ethyllidocaine inhibition [%], 2 μM N-ethyllidocaine
[9] = HEK293, 5 min, read-out: (S)-Zolmitriptan inhibition [%], OCT3, 20 μM inhibitor, 2 μM (S)-zolmitriptan, 5 min
[10] = HEK293, 5 min, read-out: (S,S)-Ethambutol inhibition [%], OCT3, 20 μM inhibitor, 2 μM (S,S)-ethambutol, 5 min
[11] = HEK293, OCT3, 20 μM inhibitor, 2 μM ASP+, 5 min, read-out: ASP+ inhibition [%]
[12] = OCT3, 20 μM inhibitor, 2 μM (S)-zolmitriptan, 5 min
[13] = OCT3, 20 μM inhibitor, 2 μM ASP+, 5 min
[14] = OCT1, 20 μM inhibitor, 2 μM ASP+, 5 min, mean of three experiments
[15] = OCT1, 20 μM inhibitor, 2 μM sumatriptan, 5 min

| Compound | (S,S)-Ethambutol inhibition [%] (OCT2; 2 μM (S,S)-ethambutol) | N-Ethyllidocaine inhibition [%] (OCT2; 2 μM N-ethyllidocaine) | inhibition at 5 min, 20 μM (OCT2; [1]) [%] | inhibition at 5 min, 20 μM (OCT1; [4]) [%] | inhibition at 5 min, 20 μM (OCT1; [5]) [%] | inhibition at 5 min, 20 μM (OCT1; [6]) [%] | inhibition at 5 min, 20 μM (OCT2; [7]) [%] | inhibition at 5 min, 20 μM (OCT2; [8]) [%] | inhibition at 20 µM (OCT3; [9]) [%] | inhibition at 20 µM (OCT3; [10]) [%] | inhibition at 20 µM (OCT3; [11]) [%] | ASP+ inhibition [%] (OCT3; [13]) | ASP+ inhibition [%] (OCT1; [14]) | ASP+ inhibition [%] (OCT2; 2 μM ASP+) | further results |
| --- | --- | --- | --- | --- | --- | --- | --- | --- | --- | --- | --- | --- | --- | --- | --- |
| CNCC[C@@H](Oc1ccc(C(F)(F)F)cc1)c1ccccc1 [(R)-Fluoxetine] | 28.2 | 48.9 | 65.6 | 77.5 | 45.6 | 83.4 |  |  |  |  |  |  |  |  | ASP+ inhibition [%] (OCT3): -6.0%; inhibition at 20 µM (OCT3; [2]): 17%; inhibition at 20 µM (OCT3; [3]): 9.6% |
| CC(C)Cc1ccc([C@@H](C)C(=O)O)cc1 [(R)-Ibuprofen] |  |  | 11.5 | 5.6 | 8.3 | -7.2 | 7 | 7.9 | -1.9 | 3.2 | 12.1 |  |  |  |  |
| Cc1cccc(C)c1OC[C@@H](C)N [(R)-Mexiletine] |  |  | 47 | 79.6 | 30.4 | 85.6 | 52.1 | 52.2 | 25 | 11.6 | -17.2 |  |  |  |  |
| NC[C@H](O)c1ccc(O)c(O)c1 [(R)-Norepinephrine] | -1.8 |  | 23.1 |  |  |  |  | 5.4 |  |  |  | 8.4 | -4.8 |  | (S)-Zolmitriptan inhibition [%] (OCT3; [12]): -4.3%; (S,S)-Ethambutol inhibition [%] (OCT3; OCT3, 20 μM inhibitor, 2 μM (S,S)-ethambutol, 5 min): 5.7%; (S,S)-Ethambutol inhibition [%] (OCT1; OCT1, 20 μM inhibitor, 2 μM (S,S)-ethambutol, 5 min): -19.9%; Sumatriptan inhibition [%] (OCT1; [15]): -1.3% |
| CNC[C@H](O)c1cccc(O)c1 [(R)-Phenylephrine] |  |  | 8.2 | 6.3 | 3.2 | -2.8 | -8.4 | -1.4 | -2.9 | 5 | -4.1 |  |  |  |  |
| CCCN[C@@H]1CCc2nc(N)sc2C1 [(R)-Pramipexole] |  |  | 43.3 | 51.6 | 19.8 | 55.8 | 10.5 | 37.1 | 13 | 23.1 | 5.3 |  |  |  | pIC50 (OCT2; IC50, OCT2, Table S5, 2 μM ASP+ as model substrate): 4.69; pIC50 (OCT1; OCT1, Table S5, 2 μM ASP+ or ethambutol as model substrate, 5 min, read-out: IC50): 4.69 |
| CC(C)NC[C@@H](O)COc1cccc2ccccc12 [(R)-Propranolol] |  |  | 47.8 | 79.9 | 44.8 | 84.3 | 25 | 20 |  |  |  |  |  |  | pIC50 (OCT3; OCT3, Table 1, read-out: IC50): 3.71 |
| C#CCN[C@@H]1CCc2ccccc21 [(R)-Rasagiline] | 51.3 | 56.7 |  | 32 |  | 42.7 |  |  | 10.3 | 13.4 |  | -11.8 | -1.3 | 51.7 |  |
| CC(C)(C)NC[C@H](O)c1ccc(O)c(CO)c1 [(R)-Salbutamol] | -0.3 | -15.0 |  | 12.2 | 5.3 |  |  |  |  | 19.5 |  | 10.3 |  | 12.8 | (S)-Zolmitriptan inhibition [%] (OCT3; [12]): -6.4%; Sumatriptan inhibition [%] (OCT1; [15]): -18.8% |
| CC(C)C[C@@H](N(C)C)C1(c2ccc(Cl)cc2)CCC1 [(R)-Sibutramine] |  | 51.2 |  |  |  |  |  |  |  |  |  | 2.6 | 41.5 | 81.6 | inhibition at 20 µM (OCT3; [2]): 38.1%; inhibition at 20 µM (OCT3; [3]): 35.5%; Sumatriptan inhibition [%] (OCT1; human, pH 7.4): 74.0% |
